The data set concerns the target T1, ABCG2 (Homo sapiens, UniProt Q9UNQ0).
T1 sequence (Q9UNQ0 1-655): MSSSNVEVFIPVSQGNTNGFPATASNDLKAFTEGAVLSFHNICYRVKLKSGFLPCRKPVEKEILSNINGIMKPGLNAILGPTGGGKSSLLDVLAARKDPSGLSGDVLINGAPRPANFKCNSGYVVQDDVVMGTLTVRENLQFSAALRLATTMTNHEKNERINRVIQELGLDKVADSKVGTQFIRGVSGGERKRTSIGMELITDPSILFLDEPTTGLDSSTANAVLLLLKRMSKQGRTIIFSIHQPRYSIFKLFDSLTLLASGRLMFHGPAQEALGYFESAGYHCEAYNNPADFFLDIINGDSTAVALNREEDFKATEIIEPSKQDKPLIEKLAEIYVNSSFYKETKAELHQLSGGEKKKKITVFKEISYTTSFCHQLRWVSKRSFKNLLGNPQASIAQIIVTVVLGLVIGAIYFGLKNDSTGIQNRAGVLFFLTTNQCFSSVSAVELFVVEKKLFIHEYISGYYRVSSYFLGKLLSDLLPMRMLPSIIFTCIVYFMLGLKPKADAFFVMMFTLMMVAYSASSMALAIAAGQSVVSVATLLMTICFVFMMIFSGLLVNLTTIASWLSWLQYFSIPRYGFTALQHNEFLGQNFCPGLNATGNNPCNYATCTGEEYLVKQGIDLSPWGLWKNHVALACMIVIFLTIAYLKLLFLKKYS
Put plainly: fluorescent substrate efflux/accumulation by flow cytometry. The format is cell-based. In general terms: In flow cytometry, cells or beads pass a laser one at a time.

Molecules are shown by their SMILES.

For the compound `C=Cc1c(C)c2cc3nc(c4c5[nH]c(cc6nc(cc1[nH]2)C(C)=C6CC)c(C)c5C(=O)[C@@H]4C(=O)OC)[C@@H](CCC(=O)O)[C@@H]3C` [pheophorbide A], the “fluorescent substrate efflux/accumulation by flow cytometry (1 μM PhA)” value was “The intracellular accumulation of pheophorbide A (PhA), a known fluorescent substrate drug of ABCG2, was determined”.

For the origin of these results see paper PMC10506422 (Biomedicine & pharmacotherapy = Biomedecine & …, 2022).
